Results published in the supplement of paper PMC10627819.

How the values were obtained:
B. subtilis 168 [1] = experiment: fitness (endpoint OD595 vs no drug) (fraction); higher = more growth
How it was run: (§1)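 Fitness was defined as the optical density at the transition into stationary phase relative to the robust mean of no-drug control wells. Values were capped at 1. Cultures were started at OD595 0.01 in 384-well plates (30 µl, or 55 µl for S. pneumoniae) in TSB, LB Lennox or CY at 37 °C. OD595 was recorded every 30 min over 14 h, with the first reading subtracted as background.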

S. aureus Newman [2] = experiment: as above
How it was run: as §1

S. pneumoniae D39V [3] = experiment: as above
How it was run: as §1

B. subtilis 168 [4] = experiment: Bliss interaction score (quartile over a dose matrix) (fitness difference); higher = more antagonism (negative = synergy)
How it was run: (§2)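 Growth in each well was taken as OD595 at entry into stationary phase. Dividing by the plate's robust no-drug mean and capping at 1 gave fitness, and single-drug fitness was inferred from the combination data. The Bliss score, observed minus product-expected fitness, is summarised by quartiles over technical, biological and donor/recipient replicates.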

S. aureus DSM 20231 = experiment: as above
How it was run: as §2

S. aureus Newman [5] = experiment: as above
How it was run: as §2

S. pneumoniae D39V [6] = experiment: as above
How it was run: as §2
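For Bliss interaction score (quartile over a dose matrix) in this document: first quartile when negative (synergy) and third quartile when positive (antagonism).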

CCC[C@@H]1C[C@@H](C(=O)N[C@@H]([C@H]2O[C@H](SC)[C@H](O)[C@@H](O)[C@H]2O)[C@H](C)Cl)N(C)C1 [Clindamycin] + CN[C@@H]1[C@H](O[C@H]2[C@H](O[C@H]3[C@H](O)[C@@H](O)[C@H](N=C(N)N)[C@@H](O)[C@@H]3N=C(N)N)O[C@@H](C)[C@]2(O)C=O)O[C@@H](CO)[C@H](O)[C@H]1O [Streptomycin]
fitness, one replicate
Details	first compound 0.0039 µg/mL	first compound 0.0078 µg/mL	first compound 0.015 µg/mL	first compound 0.0156 µg/mL	first compound 0.03 µg/mL	first compound 0.06 µg/mL
B. subtilis 168 [1], partner 2 µg/mL	≥ 1	0.855	–	0.895	–	–
B. subtilis 168 [1], partner 4 µg/mL	≥ 1	1	–	0.951	–	–
B. subtilis 168 [1], partner 8 µg/mL	0.994	0.85	–	0.853	–	–
S. pneumoniae D39V [3], partner 2 µg/mL	–	–	0.889	–	0.767	0.621
S. pneumoniae D39V [3], partner 16 µg/mL	–	–	0.712	–	0.564	0.424

fitness
Details	partner 1 µg/mL	partner 2 µg/mL	partner 4 µg/mL	partner 8 µg/mL
B. subtilis 168 [1], first compound 0.0625 µg/mL	–	0.531	0.082	0.0325
B. subtilis 168 [1], first compound 0.125 µg/mL	–	0.398	0.0693	0.0279
B. subtilis 168 [1], first compound 0.25 µg/mL	–	0.105	0.0596	0.0359
S. aureus Newman [2], first compound 0.0312 µg/mL	0.679	0.571	–	–
S. aureus Newman [2], first compound 0.125 µg/mL	0.123	0.0638	0.0582	–
S. pneumoniae D39V [3], first compound 0.0125 µg/mL	–	0.646	0.69	0.733
S. pneumoniae D39V [3], first compound 0.015 µg/mL	–	–	0.837	0.786
S. pneumoniae D39V [3], first compound 0.025 µg/mL	–	0.445	0.426	0.46
S. pneumoniae D39V [3], first compound 0.03 µg/mL	–	–	0.71	0.646
S. pneumoniae D39V [3], first compound 0.05 µg/mL	–	0.177	0.21	0.202
S. pneumoniae D39V [3], first compound 0.06 µg/mL	–	–	0.586	0.544

Details	Bliss interaction score
B. subtilis 168 [4]	-0.101
S. aureus DSM 20231	-0.0299
S. aureus Newman [5]	-0.0908
S. pneumoniae D39V [6]	-0.0581

O=C(O[C@@H]1Cc2c(O)cc(O)cc2O[C@@H]1c1cc(O)c(O)c(O)c1)c1cc(O)c(O)c(O)c1 [EGCG] + CN(C)c1cc(NC(=O)CNC(C)(C)C)c(O)c2c1C[C@H]1C[C@H]3[C@H](N(C)C)C(O)=C(C(N)=O)C(=O)[C@@]3(O)C(O)=C1C2=O [Tigecycline]
fitness
Details	first compound 6.25 µg/mL	first compound 12.5 µg/mL	first compound 25 µg/mL	first compound 50 µg/mL
B. subtilis 168 [1], partner 0.039 µg/mL	0.929	–	–	–
B. subtilis 168 [1], partner 0.078 µg/mL	0.929	–	–	–
B. subtilis 168 [1], partner 0.156 µg/mL	0.91	–	–	–
S. aureus Newman [2], partner 0.039 µg/mL	–	0.755	0.744	–
S. aureus Newman [2], partner 0.078 µg/mL	–	0.797	0.788	0.657
S. aureus Newman [2], partner 0.156 µg/mL	–	0.82	0.721	0.796
S. pneumoniae D39V [3], partner 0.325 µg/mL	–	0.913	0.97	0.958
S. pneumoniae D39V [3], partner 0.65 µg/mL	–	0.912	0.971	0.951
S. pneumoniae D39V [3], partner 1.3 µg/mL	–	0.928	0.916	0.954
S. pneumoniae D39V [3], partner 2.6 µg/mL	–	0.897	0.929	0.935

fitness, B. subtilis 168 [1], one replicate
Details	first compound 6.25 µg/mL	first compound 12.5 µg/mL	first compound 25 µg/mL
partner 0.125 µg/mL	≥ 1	0.897	0.55
partner 0.25 µg/mL	0.944	0.72	0.428
partner 0.5 µg/mL	0.942	0.757	0.418

Details	Bliss interaction score
B. subtilis 168 [4]	0.0564
S. aureus DSM 20231	-0.0488
S. aureus Newman [5]	-0.067
S. pneumoniae D39V [6]	0.079

COc1c(N2C[C@@H]3CCCN[C@@H]3C2)c(F)cc2c(=O)c(C(=O)O)cn(C3CC3)c12 [Moxifloxacin] + CN[C@@H]1[C@H](O[C@H]2[C@H](O[C@H]3[C@H](O)[C@@H](O)[C@H](N=C(N)N)[C@@H](O)[C@@H]3N=C(N)N)O[C@@H](C)[C@]2(O)C=O)O[C@@H](CO)[C@H](O)[C@H]1O [Streptomycin]
fitness
Details	partner 1 µg/mL	partner 2 µg/mL	partner 4 µg/mL	partner 8 µg/mL
B. subtilis 168 [1], first compound 0.0312 µg/mL	–	0.0439	0.0414	0.0382
B. subtilis 168 [1], first compound 0.0625 µg/mL	–	0.0428	0.0341	0.0226
B. subtilis 168 [1], first compound 0.125 µg/mL	–	0.041	0.0379	0.0381
B. subtilis 168 [1], first compound 2 µg/mL	–	0.0315	0.0296	0.0146
B. subtilis 168 [1], first compound 4 µg/mL	–	0.0231	0.0178	0.0188
B. subtilis 168 [1], first compound 8 µg/mL	–	0.013	0.0133	0.0206
S. aureus Newman [2], first compound 0.0075 µg/mL	0.834	0.733	–	–
S. aureus Newman [2], first compound 0.015 µg/mL	–	0.606	–	–
S. aureus Newman [2], first compound 0.03 µg/mL	–	0.201	0.0711	–
S. pneumoniae D39V [3], first compound 0.0037 µg/mL	–	–	0.891	0.785
S. pneumoniae D39V [3], first compound 0.005 µg/mL	–	0.922	0.944	0.892
S. pneumoniae D39V [3], first compound 0.0075 µg/mL	–	–	0.904	0.837
S. pneumoniae D39V [3], first compound 0.01 µg/mL	–	0.94	0.958	0.925
S. pneumoniae D39V [3], first compound 0.015 µg/mL	–	–	0.882	0.82
S. pneumoniae D39V [3], first compound 0.02 µg/mL	–	0.881	0.9	0.861

fitness, S. pneumoniae D39V [3], one replicate
Details	first compound 0.0037 µg/mL	first compound 0.0075 µg/mL	first compound 0.015 µg/mL
partner 2 µg/mL	0.903	0.908	0.919
partner 16 µg/mL	0.699	0.743	0.685

Details	Bliss interaction score
B. subtilis 168 [4]	0.0188
S. aureus DSM 20231	0.0517
S. aureus Newman [5]	-0.031
S. pneumoniae D39V [6]	0.0604
